The values that follow come from article PMC12029982, “The Mechanism of a Novel Mitochondrial-Targeted Icaritin Derivative in Regulating Apoptosis of BEL-7402 Cells Based on the SIRT3 and CypD-Mediated ROS/p38 MAPK Signaling Pathway” (Molecules, 2025).

Holding throughout (type): cell-based, human
One assay has as its system DDIT3. In words: qRT-PCR. The note with it: vs blank control, BEL-7402, p < 0.05. How it is done:
(§1) Total RNA was extracted from BEL-7402 cells before and after Mito-ICT-4 treatment using the Trizol method. The RNA was then reverse transcribed and used for quantitative real-time PCR (qRT-PCR) analysis. All gene sequences were obtained from the official website of NCBI (http://ncbi.nlm.nih.gov, accessed on 16 December 2023), and primers were designed and synthesized by Sangon Biotech. β-actin was used as an internal reference. To each well, 10 µL of 2 × SGExcel FastSYBR (Sangon Biotech, Shanghai, China) mixture was added, along with 0.4 µL each of forward and reverse primers (F/R), followed by 2 µL of cDNA. The volume was then adjusted to 20 µL with water. The qRT-PCR amplification procedure included the following steps: pre-denaturation at 95 °C for 3 min, denaturation at 95 °C for 15 s, and annealing at 60 °C for 45 s. A total of 45 cycles were performed. Fluorescence signals were collected from 60 °C to 95 °C using an ABI 7500 fluorescence quantitative PCR instrument (ABI, Waltham, MA, USA). Gene expression was calculated using the 2^−ΔΔCt method.
On the technique in general: Real-time PCR tracks product formation cycle by cycle.

The subject of the next assay is P38. The experiment in a line: qRT-PCR. The note with it: vs blank control, BEL-7402, p < 0.05. How it is done:
as §1

The subject of the next assay is SIRT3. The experiment in a line: qRT-PCR. The conditions noted are these: vs blank control, BEL-7402, p < 0.05. The procedure:
as §1

For a further assay, the system named is MKK6. In words: qRT-PCR. The note with it: vs blank control, BEL-7402, p < 0.05. The procedure:
as §1

In the next assay the test system is CypD. In words: qRT-PCR. The note with it: vs blank control, BEL-7402, p < 0.05. How it is done: as §1
Assay [1] deals with BEL-7402 cells. The experiment in a line: Annexin V-FITC/PI flow cytometry apoptosis assay. The procedure:
BEL-7402 cells in the logarithmic growth phase were prepared into a cell suspension at a concentration of 2.5 × 10^5 cells/mL and seeded into 6-well culture plates with 2 mL per well. After overnight incubation, different concentrations of Mito-ICT-4 (0.625, 1.25, 2.5 μmol/L) were added to the cells, and a control group was included. After 48 h of culture, the supernatant was transferred to a centrifuge tube. The cells were then digested with pancreatin (without EDTA) (Beyotime, Nanjing, China) at room temperature and centrifuged at 4 °C for 5 min (10,000 rpm). The supernatant was discarded. Then, 300 μL of 1× buffer was added to each group, and the mixture was well mixed. The mixture was then incubated with 5 μL of Annexin V-FITC (Solarbio, Beijing, China) solution at room temperature for 5 min, protected from light, followed by the addition of 5 μL of PI solution. Apoptosis was detected using flow cytometry (BD Biosciences, Franklin Lakes, NJ, USA).
(Flow cytometry measures light scatter and fluorescence of single cells or particles in a stream.)

The test system of assay [2] is BEL-7402 cells. The experiment in a line: DAPI staining, apoptosis. The note with it: 0.625, 1.25, 2.5 μmol/L, 48 h. How it is done:
BEL-7402 cells in the logarithmic growth phase were seeded in 12-well plates at a density of 1 × 10^5 cells/well. After overnight incubation, the cells were treated with different concentrations of Mito-ICT-4 (0.625, 1.25, and 2.5 μmol/L), and a control group was included. After 48 h of incubation, the cells were fixed with 4% histocyte fixative (Solarbio, Beijing, China) at room temperature for 15 min. After fixation, 500 μL of DAPI staining solution (Solarbio, Beijing, China) was added to each well and incubated at 37 °C for 20 min. The cells were then observed under an inverted fluorescence microscope (EVOS M5000, Waltham, MA, USA).

The test system of assay [3] is BEL-7402 cells. The experiment in a line: JC-1 staining, mitochondrial membrane potential. The note with it: JC-1, 0.625, 1.25, 2.5 μmol/L, 48 h. How it is done:
Drug grouping and administration were performed as described in Section 2.5. After 48 h of incubation, 500 μL of JC-1 fluorescent dye (Beyotime, Nanjing, China) was added to each well. The cells were stained at 37 °C for 30 min, after which the dye was discarded. The cells were then washed three times with PBS and observed under an inverted fluorescence microscope.

With `COc1ccc(-c2oc3c(CC=C(C)C)c(OC(=O)CCCCCCCCCC[P+](c4ccccc4)(c4ccccc4)c4ccccc4)cc(O)c3c(=O)c2O)cc1` [Mito-ICT-4], in the assay on DDIT3, the “DDIT3 gene expression level” value was “significantly upregulated”. In the assay on P38, the “P38 gene expression level” value is listed as “significantly downregulated”. In addition, in the assay on SIRT3, the “SIRT3 gene expression level” value was “significantly downregulated”. In addition, the “MKK6 gene expression level” value in the assay on MKK6 is listed as “significantly downregulated”. In addition, in the assay on CypD, the “CypD gene expression level” value is on record as “significantly upregulated”. Also, the “cells undergoing early apoptosis” value in the assay on BEL-7402 cells [1] (BEL-7402 cells treated with Mito-ICT-4) was determined as 27.39%. The “apoptosis-inducing ability relative to ICT” value with BEL-7402 cells [1] (BEL-7402 cells, sentence cites [24]) is listed as “approximately 29.8 times”. For the same compound, the total apoptosis rate with BEL-7402 cells [1] (high-dose group (2.5 μmol/L), 48 h) was 27.39%. Moreover, in the assay on BEL-7402 cells [2], the “nuclear morphology, DAPI staining” value is “nuclei exhibited crumpling and cleavage”. The mitochondrial membrane potential entry in the assay with BEL-7402 cells [3] is on record as “reduction”.
